According to US6235707A, “Anticoagulant peptidyl-arginine aldehyde derivatives” (Gyogyszerkutato Intezet Kft., priority 1996, dated 2001):
Read-outs that look alike come from different tables or passages of the source. Square brackets hold non-standard residues; d marks the D form. Peptide text beside a SMILES is read from it. * marks the point of attachment. dCba = N[C@H](CC1CCC1)C(=O)O; Moc = COC(=O)*

Columns and labels:
citrate plasma [1] = experiment: activated partial thromboplastin time (APTT) plasma clotting test; type: biochemical
Procedure: (§1) Anticoagulant activity (i.e. inhibition of the proteolytic reactions in the process) is measured by anticoagulant tests, e.g. in the thrombin time (TT), activated partial thromboplastin time (APTT) and prothrombin time (PT) tests [E. J. W. Bovie et al., Mayo Clinic Laboratory Manual of Haemostasis; W. B. Saunders Co., Philadelphia (1971)]. Plasma, inhibited in spontaneous coagulation, e.g. citrate-plasma, is made to coagulate and the required coagulation time is measured. Upon the action of anticoagulants the coagulation time is prolonged proportionally to the inhibition of the reaction(s) in the process. The anticoagulant effect can be characterised by the substance concentration required to prolong the coagulation time twofold compared to the control (IC50). The effect of anticoagulants on individual coagulant proteases is measured by the amidolytic method [R. Lottenberg et al., Methods in Enzymol. 80, 341 (1981); G. Cleason, Blood Coagulation and Fibrinolysis 5, 411 (1994)]. The isolated active factor (e.g. thrombin, fXa) and its chromogen or fluorogen peptide-amide substrate are reacted in the presence or absence of the inhibitor, resp. The enzyme inhibiting action is characterised by the inhibitory constant (IC50) measured during amidolysis.
(§2) In the TT test coagulation is initiated by the thrombin added to the citrate plasma. In the system 22 pmol/ml of thrombin is functioning and its inhibition can be measured on the fibrinogen (one of the natural substrates of thrombin) in the presence of plasma components. In the APTT and PT tests the full coagulation process takes place. Depending on the activator fX is activated either by the extrinsic or the intrinsic pathway. The generated fXa activates prothrombin to thrombin which, in turn, triggers plasma coagulation. The coagulation time is prolonged if the enzymes or one of them is inhibited by the inhibitor. In the APTT and PT tests at most 40 pmol/ml Xa can be generated (this is the full amount of factor X present in both systems) while 150 pmol/ml (APTT) and 350 pmol/ml (PT) of thrombin are generated [B. Kaiser et al., Thromb. Res. 65, 157 (1992)].
(§3) The in vitro anticoagulant effects of the compounds of general formula (I) was measured by the prothrombin time (PT), activated partial thromboplastin time (APTT) and thrombin time (TT) tests [D. Bagdy et al., Thromb. Haemost. 67, 325 (1992)]. The fxa-inhibiting effect of the compounds was also determined using the Bz-Ile-Glu-Gly-Arg-pNA chromogen substrate (see method M6).

citrate plasma [2] = experiment: prothrombin time (PT) plasma clotting test; type: biochemical
Procedure: as §1, §2, §3

isolated human fXa = target: T1, isolated human fXa (Homo sapiens, UniProt P00742); experiment: fXa inhibition in solution, amidolytic method on Bz-Ile-Glu-Gly-Arg-pNA chromogen substrate (Method M6); type: biochemical; details: for IC50: isolated human fXa, Bz-Ile-Glu-Gly-Arg-pNA
T1 construct: The isolated active factor (e.g. thrombin, fXa) and its chromogen or fluorogen peptide-amide substrate are reacted; purchased SIGMA
T1 sequence (P00742 235-488 limits assumed): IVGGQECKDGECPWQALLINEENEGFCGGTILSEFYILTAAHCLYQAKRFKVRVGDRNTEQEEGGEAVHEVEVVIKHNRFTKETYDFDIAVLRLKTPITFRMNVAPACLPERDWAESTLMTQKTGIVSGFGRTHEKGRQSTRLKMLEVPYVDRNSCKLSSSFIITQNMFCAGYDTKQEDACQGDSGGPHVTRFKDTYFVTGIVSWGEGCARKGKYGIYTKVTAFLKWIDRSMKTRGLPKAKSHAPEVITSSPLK
T1 sequence (P00742 41-179 partner limits assumed): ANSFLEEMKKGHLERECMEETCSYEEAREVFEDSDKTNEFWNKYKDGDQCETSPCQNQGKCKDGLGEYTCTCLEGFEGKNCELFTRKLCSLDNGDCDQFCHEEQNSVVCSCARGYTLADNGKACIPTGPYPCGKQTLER
Procedure: as §1, §3
Determination of Factor Xa Inhibition in Solution on a 96-well Microtitre Plate
a) By means of phosphate buffer (0.1M sodium phosphate and 0.05M sodium chloride, pH=7.4) 1.3 E/ml solution is prepared from human factor Xa (SIGMA), and 0.1-1.0-10 and 100 μg/ml solutions from the peptide inhibitors. The Bz-Ile-Glu-Gly-Arg-pNA substrate is used in distilled water solution ([…]).
b) From the control and the peptide inhibitor solutions (3 parallel samples of each concentration) 30-30 μl aliquots are placed into the wells. 30 μl of factor Xa, 90 μl of buffer and 150 μl of substrate are added to the peptide solution and the extinction is determined after 10 min. at 405 nm. Thereafter the steps are the same as in M2/c.

thrombin = thrombin (Homo sapiens, UniProt P00734); experiment: thrombin time (TT) plasma clotting test; type: biochemical
Procedure: as §1, §2, §3

clot-bound thrombin = target: T2, clot-bound thrombin (Homo sapiens, UniProt P00734); experiment: inhibition of plasma clot-bound thrombin (Methods M1, M3); type: biochemical; details: clot from platelet-rich human plasma; Tos-Gly-Pro-Arg-pNA substrate
T2 construct: from tissue; host or cells: clot of recalcified human platelet-rich plasma
Procedure: (§4) Plasma-clot was obtained by recalcificating platelet-rich human plasma, and fibrin gel by clotting human fibrinogen with human thrombin. For the activity measures of fXa and thrombin Z-D-Arg-Gly-Arg-pNA or Tos-Gly-Pro-Arg-pNA substrates were used in agreement with Methods M1-M3.
Preparation of Clots from Human Plasma
a) Platelet-rich plasma is prepared by centrifuging a 9:1 mixture of human blood and 3.8% sodium citrate solution for 5 min. at 240×g.
b) 200 μl platelet-rich plasma and 80 μl 40 mM CaCl2 solution are allowed to stand at room temperature for 1 hour. The thus-formed clot is washed with 6×2 ml of 0.9% NaCl solution with gentle stirring to remove the residual enzymes (thrombin and factor Xa). The washing medium is assayed for thrombin-like activity as follows:
c) To 400 μl of washing medium 100 μl of 1 mM Tos-Gly-Pro-Arg-pNA substrate solution is added, the mixture is incubated for 30 min at 37° C., then the reaction is stopped with 100 μl of 50% acetic acid. From this mixture 150 μl aliquots are applied onto a 96-well microtitre plate and the extinction coefficients are measured at 405 nm (ELISA READER SLT Laborinstrument GmbH, Austria). In case of efficient washing the extinction coefficient is smaller than 5% of that of the control.
Determination of the Inhibition of Clot-bound Thrombin
a) Solutions are made from the peptide inhibitors according to Method M2/a.
b) After draining off the washing medium the clots (Method M1) are mixed with 400 μl of peptide solution (3 parallel samples with each concentration), then the samples are incubated for 5 min. at 37° C. together with a separate 400 μl buffer serving as control. Then 100 μl […] 1 mM Tos-Gly-Pro-Arg-pNA substrate solution is added and the incubation continued for further 30 min. at 37° C. The experiment is continued according to M2/c.

urokinase (UK) = urokinase (UK) (Homo sapiens, UniProt P00749); experiment: fibrin-plate method, plasmin formation induced by urokinase; type: biochemical; details: for IC50: fibrin plate, hydrolysed area reduced to 50% of control; for B: relative efficiency, UK: related to the activity of C1 (1/IC50 = 1)
Description: (§5) The inhibitory effect of the new compounds of the invention on plasmin (PL) as well as on plasmin formation induced by tissue plasminogen activator (tPA) and urokinase (UK) was examined by the fibrin-plate method [D. Bagdy et al.: Thromb. Haemost. 67, 325 (1992)]. Compounds C1 and C5 served as controls. […] V. Jackson et al.: J. Cardiovasc. Pharmacol. 21, 587 (1993))]. In Table 4 the results obtained with the new compounds 1 and 2 as well as those with controls C1 and C5 are presented as an example.

[3] = target: T3, fibrin gel-bound thrombin (Homo sapiens, UniProt P00734); experiment: inhibition of fibrin gel-bound thrombin (Methods M4, M5); type: biochemical; details: human fibrinogen clotted with human thrombin; Tos-Gly-Pro-Arg-pNA substrate
T3 construct: purchased SIGMA
Procedure: as §4
Preparation of Fibrin Clots
a) To each reaction vessel 200 μl of human fibrinogen (SIGMA), 25 μl of 25 NIH/E/ml human thrombin (SIGMA) and 40 μl of 100 mM CaCl2 solution is placed and the mixtures are allowed to stand for 1 hour at 20-22° C. The fibrin clots are washed with isotonic NaCl-solution (3×2 ml) under gentle stirring to remove traces of thrombin and sedimented for 5 min. The effectiveness of the washing can be checked by the method M1/c.
Determination of Inhibition of Fibrin-clot Bound Thrombin
a) 0.1-1.0-10 and 100 μg/ml solutions are made from the peptide inhibitors with Hepes/NaCl buffer (0.001 M Hepes and 0.1 M NaCl, pH=7.4).
b) Measurements are continued according to M3/b.

plasmin (PL) = plasmin (PL) (Homo sapiens, UniProt P00747); experiment: fibrin-plate method, plasmin; type: biochemical; details: for IC50: fibrin plate, hydrolysed area reduced to 50% of control; for B: relative efficiency, PL: related to the activity of C1 (1/IC50 = 1)
plasmin (PL), sequence (P00747 581-810 limits assumed, species assumed): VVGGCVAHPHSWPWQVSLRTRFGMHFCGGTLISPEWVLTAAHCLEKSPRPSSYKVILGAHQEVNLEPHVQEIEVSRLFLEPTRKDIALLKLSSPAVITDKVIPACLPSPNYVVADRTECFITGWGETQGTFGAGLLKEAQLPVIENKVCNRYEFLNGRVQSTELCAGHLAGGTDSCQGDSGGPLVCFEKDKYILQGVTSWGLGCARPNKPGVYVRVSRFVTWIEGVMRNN
plasmin (PL), sequence (P00747 97-580 partner limits assumed, species assumed): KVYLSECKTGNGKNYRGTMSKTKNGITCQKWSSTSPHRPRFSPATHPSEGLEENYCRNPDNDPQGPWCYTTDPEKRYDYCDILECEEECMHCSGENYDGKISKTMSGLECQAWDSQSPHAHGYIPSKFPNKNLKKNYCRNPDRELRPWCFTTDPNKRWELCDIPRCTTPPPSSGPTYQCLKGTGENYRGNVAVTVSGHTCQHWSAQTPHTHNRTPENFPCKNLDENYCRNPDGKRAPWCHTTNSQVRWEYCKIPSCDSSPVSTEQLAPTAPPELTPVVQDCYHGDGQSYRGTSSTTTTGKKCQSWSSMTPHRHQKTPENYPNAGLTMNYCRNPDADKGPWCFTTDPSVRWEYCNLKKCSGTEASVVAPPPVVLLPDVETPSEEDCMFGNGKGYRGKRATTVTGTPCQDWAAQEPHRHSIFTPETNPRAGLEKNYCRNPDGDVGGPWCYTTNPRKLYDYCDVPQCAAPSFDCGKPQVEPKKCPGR
Description: as §5

[4] = target: tissue plasminogen activator (tPA) (Homo sapiens, UniProt P00750); experiment: fibrin-plate method, plasmin formation induced by tPA; type: biochemical; details: for IC50: fibrin plate, hydrolysed area reduced to 50% of control; for B: relative efficiency, tPA: related to the activity of C1 (1/IC50 = 1)
tissue plasminogen activator (tPA), sequence (P00750 36-562, species assumed): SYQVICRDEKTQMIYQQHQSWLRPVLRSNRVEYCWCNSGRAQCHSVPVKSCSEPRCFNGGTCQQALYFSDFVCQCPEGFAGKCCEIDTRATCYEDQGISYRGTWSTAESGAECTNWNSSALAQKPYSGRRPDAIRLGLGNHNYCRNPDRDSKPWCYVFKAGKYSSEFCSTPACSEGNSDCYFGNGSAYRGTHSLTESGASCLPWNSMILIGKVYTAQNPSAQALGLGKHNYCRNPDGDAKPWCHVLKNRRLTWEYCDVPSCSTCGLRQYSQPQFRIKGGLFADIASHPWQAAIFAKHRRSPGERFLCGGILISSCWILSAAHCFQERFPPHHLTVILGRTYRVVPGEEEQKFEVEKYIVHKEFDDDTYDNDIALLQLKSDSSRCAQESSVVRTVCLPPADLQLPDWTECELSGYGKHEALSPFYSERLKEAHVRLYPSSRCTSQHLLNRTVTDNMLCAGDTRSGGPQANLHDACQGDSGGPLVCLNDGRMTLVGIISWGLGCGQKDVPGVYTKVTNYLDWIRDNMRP
Description: as §5

[5] = C. V. Jackson et al. 1993; cited from earlier work
[6] = Table 3, twofold prolongation compared to control, read-out: A: anticoagulant IC50, APTT
[7] = Table 3, twofold prolongation compared to control, read-out: A: anticoagulant IC50, PT
[8] = Table 3, read-out: B: fXa inhibiting IC50
[9] = Table 3, twofold prolongation compared to control, read-out: A: anticoagulant IC50, TT
[10] = Table 2, concentration prolonging clotting time twofold, read-out: A: anticoagulation IC50, APTT
[11] = Table 2, concentration prolonging clotting time twofold, read-out: A: anticoagulation IC50, PT
[12] = Table 2, read-out: B: fXa inhibiting effect IC50
[13] = Table 2, concentration prolonging clotting time twofold, read-out: A: anticoagulation IC50, TT

Row | Compound | IC50 (citrate plasma [1]; [6]) [nM] | IC50 (citrate plasma [2]; [7]) [nM] | IC50 (isolated human fXa; [8]) [nM] | IC50 (thrombin; [9]) [nM] | B: relative efficiency, UK (urokinase (UK)) | B: relative efficiency, PL (plasmin (PL)) | B: relative efficiency, tPA [4] | further results
1 | CCOC(=O)NC(C(=O)N1CCC[C@H]1C(=O)N[C@H](C=O)CCCNC(=N)N)C1CCC1 (mixture of isomers) [Example C10, Ethoxycarbonyl-DL-cyclobutyl-glycyl-L-prolyl-L-arginine aldehyde] | 770 | 6150 | 82 | 880 | – | – | – | –
2 | COC(=O)N[C@H](CC1CCC1)C(=O)N1CCC[C@H]1C(=O)N[C@H](C=O)CCCNC(=N)N [Example 2, methoxycarbonyl-3-cyclobutyl-D-alanyl-L-prolyl-L-arginine aldehyde] (Moc-[dCba]-Pro-Arg-aldehyde) | 250 | 1120 | 388 | 110 | 0.5 | 0.23 | 1.4 | IC50 (clot-bound thrombin): 680 nM; IC50 (urokinase (UK)): 153000 nM; activity against UK, times lower than that of compound C5 (urokinase (UK); text b147, third of three enzymes): 39 times; IC50 [3]: 640 nM; IC50 (plasmin (PL)): 235000 nM; activity against PL, times lower than that of compound C5 (plasmin (PL); text b147, first of three enzymes): 3.2 times; IC50 [4]: 92000 nM; activity against tPA, times lower than that of compound C5 ([4]; text b147, second of three enzymes): 4.5 times
3 | COC(=O)N[C@H](Cc1ccccc1)C(=O)N1CCC[C@H]1C(=O)N[C@H](C=O)CCCNC(=N)N [Example C7, Methoxycarbonyl-3-phenyl-D-alanyl-L-prolyl-L-arginine aldehyde] | – | – | – | – | – | – | – | IC50 (citrate plasma [1]; [10]): 290 nM; IC50 (citrate plasma [2]; [11]): 1960 nM; IC50 (isolated human fXa; [12]): 130 nM; IC50 (thrombin; [13]): 200 nM
4 | CCOC(=O)N[C@H](Cc1ccccc1)C(=O)N1CCC[C@H]1C(=O)N[C@H](C=O)CCCNC(=N)N [Example C6, Ethoxycarbonyl-3-phenyl-D-alanyl-L-prolyl-L-arginine aldehyde] | 380 | 1910 | 917 | 130 | – | – | – | –
5 | CCOC(=O)NC(CC1CCCC1)C(=O)N1CCC[C@H]1C(=O)N[C@H](C=O)CCCNC(=N)N (mixture of isomers) [Example C9, Ethoxycarbonyl-3-cyclopentyl-DL-alanyl-L-prolyl-L-arginine aldehyde] | 480 | 1900 | 43 | 260 | – | – | – | –
6 | CCOC(=O)NC(CC1CCC1)C(=O)N1CCC[C@H]1C(=O)N[C@H](C=O)CCCNC(=N)N (mixture of isomers) [Example C8, Ethoxycarbonyl-3-cyclobutyl-DL-alanyl-L-prolyl-L-arginine aldehyde] | 500 | 1490 | 68 | 130 | – | – | – | –
7 | CCOC(=O)N[C@H](CC1CCCC1)C(=O)N1CCC[C@H]1C(=O)N[C@H](C=O)CCCNC(=N)N [Example 4, Ethoxycarbonyl-3-cyclopentyl-D-alanyl-L-prolyl-L-arginine aldehyde] | 240 | 1410 | 27 | 100 | 1.8 | 0.55 | 3.5 | IC50 (clot-bound thrombin): 490 nM; IC50 (urokinase (UK)): 46000 nM; IC50 [3]: 670 nM; IC50 (plasmin (PL)): 98000 nM; IC50 [4]: 38000 nM
8 | CC(C)(C)OC(=O)N[C@H](Cc1ccccc1)C(=O)N1CCC[C@H]1C(=O)N[C@H](C=O)CCCNC(=N)N [Example C5, BOC-D-Phe-Pro-Arg-H] | – | – | – | – | 27.3 | 4.5 | 22.0 | IC50 (citrate plasma [1]; [10]): 760 nM; IC50 (citrate plasma [2]; [11]): 2270 nM; IC50 (isolated human fXa; [12]): 910 nM; fXa IC50, times lower than C1 (isolated human fXa; text b89): 10 times; IC50 (thrombin; [13]): 200 nM; antifibrinolytic effect in vivo [5]: well detectable
